Test results published in article PMC6591251, “Discovery of potent necroptosis inhibitors targeting RIPK1 kinase activity for the treatment of inflammatory disorder and cancer metastasis” (Cell Death & Disease, 2019).

Key:
Experiment in all cases: RBC kinase panel
Assay type in all cases: biochemical
Conditions in all cases: ATP 10 μM, Data1, Data2
[1] = target: T1, TYRO3/SKY (Homo sapiens, UniProt Q06418)
T1 construct: purchased Reaction Biology Corporation
Summary of the method: (§1)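 Duplicate determinations were made for each of 369 human kinases exposed to 1 μM compound, with reactions run at 10 μM ATP.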

[2] = target: T2, SIK2 (Homo sapiens, UniProt Q9H0K1)
T2 construct: purchased Reaction Biology Corporation
T2 sequence (Q9H0K1 whole entry): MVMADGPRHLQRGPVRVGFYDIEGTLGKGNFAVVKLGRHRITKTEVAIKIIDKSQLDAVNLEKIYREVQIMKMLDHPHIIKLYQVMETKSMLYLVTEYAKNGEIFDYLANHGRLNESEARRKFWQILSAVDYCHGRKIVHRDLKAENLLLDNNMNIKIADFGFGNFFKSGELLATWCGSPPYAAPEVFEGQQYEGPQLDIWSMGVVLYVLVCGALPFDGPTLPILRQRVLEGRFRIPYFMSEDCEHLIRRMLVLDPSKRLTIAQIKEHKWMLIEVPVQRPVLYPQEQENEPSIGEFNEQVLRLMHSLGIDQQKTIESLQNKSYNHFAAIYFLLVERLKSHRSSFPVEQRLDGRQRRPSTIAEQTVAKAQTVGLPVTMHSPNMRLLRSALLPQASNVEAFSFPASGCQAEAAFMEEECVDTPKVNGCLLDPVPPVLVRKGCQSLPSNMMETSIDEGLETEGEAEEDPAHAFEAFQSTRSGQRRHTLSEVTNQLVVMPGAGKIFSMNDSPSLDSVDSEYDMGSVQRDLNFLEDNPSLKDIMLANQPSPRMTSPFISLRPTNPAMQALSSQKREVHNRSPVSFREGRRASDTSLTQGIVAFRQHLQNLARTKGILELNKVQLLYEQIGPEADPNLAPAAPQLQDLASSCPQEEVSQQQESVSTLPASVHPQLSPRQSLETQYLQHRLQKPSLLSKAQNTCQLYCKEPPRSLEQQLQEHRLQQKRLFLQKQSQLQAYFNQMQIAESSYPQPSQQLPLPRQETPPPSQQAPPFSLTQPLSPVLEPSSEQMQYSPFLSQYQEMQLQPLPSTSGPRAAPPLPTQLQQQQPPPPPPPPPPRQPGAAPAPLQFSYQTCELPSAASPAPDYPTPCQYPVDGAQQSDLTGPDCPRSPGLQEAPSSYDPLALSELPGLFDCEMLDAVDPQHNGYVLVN
Summary of the method: as §1

[3] = target: T3, ERK7/MAPK15 (Homo sapiens, UniProt Q8TD08)
T3 construct: purchased Reaction Biology Corporation
Summary of the method: as §1

[4] = target: T4, EPHA1 (Homo sapiens, UniProt P21709)
T4 construct: purchased Reaction Biology Corporation
Summary of the method: as §1

[5] = target: T5, MLK2/MAP3K10 (Homo sapiens, UniProt Q02779)
T5 construct: purchased Reaction Biology Corporation
T5 sequence (Q02779 whole entry): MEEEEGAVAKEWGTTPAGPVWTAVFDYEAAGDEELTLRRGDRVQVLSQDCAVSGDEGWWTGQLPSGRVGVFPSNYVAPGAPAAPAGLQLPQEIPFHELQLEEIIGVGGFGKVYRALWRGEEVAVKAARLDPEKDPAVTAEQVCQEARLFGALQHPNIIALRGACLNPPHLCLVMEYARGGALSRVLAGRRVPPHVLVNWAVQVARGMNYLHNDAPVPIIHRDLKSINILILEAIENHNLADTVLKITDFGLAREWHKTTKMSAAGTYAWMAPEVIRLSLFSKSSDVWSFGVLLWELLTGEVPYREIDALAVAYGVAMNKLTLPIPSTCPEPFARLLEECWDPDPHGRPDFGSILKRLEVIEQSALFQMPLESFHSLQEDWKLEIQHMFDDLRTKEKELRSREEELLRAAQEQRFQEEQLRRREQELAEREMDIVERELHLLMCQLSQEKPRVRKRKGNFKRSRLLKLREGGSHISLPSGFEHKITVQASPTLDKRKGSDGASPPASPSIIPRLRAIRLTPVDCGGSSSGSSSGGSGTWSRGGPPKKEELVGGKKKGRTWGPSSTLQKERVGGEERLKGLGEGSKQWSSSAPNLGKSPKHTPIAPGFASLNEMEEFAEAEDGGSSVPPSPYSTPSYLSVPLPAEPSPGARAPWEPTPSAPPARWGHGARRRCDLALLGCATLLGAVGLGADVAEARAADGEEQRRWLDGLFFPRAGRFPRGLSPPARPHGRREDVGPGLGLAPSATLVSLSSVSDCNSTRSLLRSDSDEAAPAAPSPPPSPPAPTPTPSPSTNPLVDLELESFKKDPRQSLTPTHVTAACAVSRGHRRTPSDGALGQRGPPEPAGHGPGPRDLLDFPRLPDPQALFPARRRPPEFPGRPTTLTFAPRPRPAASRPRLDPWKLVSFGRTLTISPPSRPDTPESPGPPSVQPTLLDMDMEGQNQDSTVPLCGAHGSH
Summary of the method: as §1

[6] = target: T6, BRK (Homo sapiens, UniProt Q13882)
T6 construct: purchased Reaction Biology Corporation
Summary of the method: as §1

[7] = target: T7, LYN (Homo sapiens, UniProt P07948)
T7 construct: purchased Reaction Biology Corporation
T7 sequence (P07948 whole entry): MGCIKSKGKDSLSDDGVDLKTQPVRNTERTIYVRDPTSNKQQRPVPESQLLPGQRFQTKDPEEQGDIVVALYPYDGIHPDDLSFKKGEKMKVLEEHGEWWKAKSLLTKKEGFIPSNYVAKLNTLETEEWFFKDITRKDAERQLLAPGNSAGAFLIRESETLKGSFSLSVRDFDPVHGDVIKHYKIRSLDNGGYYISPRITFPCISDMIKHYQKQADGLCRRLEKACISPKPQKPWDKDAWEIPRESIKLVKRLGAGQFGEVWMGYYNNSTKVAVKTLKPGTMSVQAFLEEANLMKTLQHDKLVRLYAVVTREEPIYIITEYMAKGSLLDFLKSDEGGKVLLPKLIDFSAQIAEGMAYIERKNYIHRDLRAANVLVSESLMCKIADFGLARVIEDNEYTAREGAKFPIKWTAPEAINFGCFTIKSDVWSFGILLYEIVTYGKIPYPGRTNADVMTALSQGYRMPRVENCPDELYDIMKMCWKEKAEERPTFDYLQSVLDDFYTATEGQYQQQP
Summary of the method: as §1

[8] = target: T8, FAK/PTK2 (Homo sapiens, UniProt Q05397)
T8 construct: purchased Reaction Biology Corporation
Summary of the method: as §1

[9] = target: T9, RON/MST1R (Homo sapiens, UniProt Q04912)
T9 construct: purchased Reaction Biology Corporation
Summary of the method: as §1

[10] = target: T10, TSSK2 (Homo sapiens, UniProt Q96PF2)
T10 construct: purchased Reaction Biology Corporation
Summary of the method: as §1

[11] = target: T11, WNK1 (Homo sapiens, UniProt Q9H4A3)
T11 construct: purchased Reaction Biology Corporation
Summary of the method: as §1

[12] = target: T12, PKCmu/PRKD1 (Homo sapiens, UniProt Q15139)
T12 construct: purchased Reaction Biology Corporation
Summary of the method: as §1

[13] = target: T13, MYO3b (Homo sapiens, UniProt Q8WXR4)
T13 construct: purchased Reaction Biology Corporation
Summary of the method: as §1

[14] = target: T14, DAPK2 (Homo sapiens, UniProt Q9UIK4)
T14 construct: purchased Reaction Biology Corporation
T14 sequence (Q9UIK4 whole entry): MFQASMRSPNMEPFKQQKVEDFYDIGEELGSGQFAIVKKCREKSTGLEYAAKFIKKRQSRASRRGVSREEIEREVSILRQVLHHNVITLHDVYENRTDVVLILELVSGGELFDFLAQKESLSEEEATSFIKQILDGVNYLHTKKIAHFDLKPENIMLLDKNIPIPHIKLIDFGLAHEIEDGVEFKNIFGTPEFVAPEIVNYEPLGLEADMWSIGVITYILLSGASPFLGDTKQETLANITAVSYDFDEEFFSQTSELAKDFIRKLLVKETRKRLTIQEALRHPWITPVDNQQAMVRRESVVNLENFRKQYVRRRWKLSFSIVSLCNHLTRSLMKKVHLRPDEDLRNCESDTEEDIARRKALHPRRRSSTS
Summary of the method: as §1

[15] = target: T15, PKCd (Homo sapiens, UniProt Q05655)
T15 construct: purchased Reaction Biology Corporation
Summary of the method: as §1

[16] = target: T16, ALK (Homo sapiens, UniProt Q9UM73)
T16 construct: purchased Reaction Biology Corporation
Summary of the method: as §1

[17] = target: T17, PKCepsilon (Homo sapiens, UniProt Q02156)
T17 construct: purchased Reaction Biology Corporation
Summary of the method: as §1

[18] = target: T18, ERBB4/HER4 (Homo sapiens, UniProt Q15303)
T18 construct: purchased Reaction Biology Corporation
Summary of the method: as §1

[19] = target: T19, MNK2 (Homo sapiens, UniProt Q9HBH9)
T19 construct: purchased Reaction Biology Corporation
Summary of the method: as §1

[20] = target: T20, SYK (Homo sapiens, UniProt P43405)
T20 construct: purchased Reaction Biology Corporation
Summary of the method: as §1

[21] = target: T21, TAOK2/TAO1 (Homo sapiens, UniProt Q9UL54)
T21 construct: purchased Reaction Biology Corporation
Summary of the method: as §1

[22] = target: T22, CDK1/cyclin B (Homo sapiens, UniProt P06493)
T22 construct: purchased Reaction Biology Corporation
Summary of the method: as §1

[23] = target: T23, RSK3 (Homo sapiens, UniProt Q15349)
T23 construct: purchased Reaction Biology Corporation
Summary of the method: as §1

[24] = target: T24, FLT1/VEGFR1 (Homo sapiens, UniProt P17948)
T24 construct: purchased Reaction Biology Corporation
Summary of the method: as §1

[25] = target: T25, DRAK1/STK17A (Homo sapiens, UniProt Q9UEE5)
T25 construct: purchased Reaction Biology Corporation
Summary of the method: as §1

[26] = target: T26, DYRK4 (Homo sapiens, UniProt Q9NR20)
T26 construct: purchased Reaction Biology Corporation
Summary of the method: as §1

[27] = target: T27, CK2a (Homo sapiens, UniProt P68400)
T27 construct: purchased Reaction Biology Corporation
Summary of the method: as §1

[28] = target: T28, CK1d (Homo sapiens, UniProt P48730)
T28 construct: purchased Reaction Biology Corporation
Summary of the method: as §1

[29] = target: T29, MEKK2 (Homo sapiens, UniProt Q9Y2U5)
T29 construct: purchased Reaction Biology Corporation
Summary of the method: as §1

[30] = target: T30, MELK (Homo sapiens, UniProt Q14680)
T30 construct: purchased Reaction Biology Corporation
T30 sequence (Q14680 whole entry): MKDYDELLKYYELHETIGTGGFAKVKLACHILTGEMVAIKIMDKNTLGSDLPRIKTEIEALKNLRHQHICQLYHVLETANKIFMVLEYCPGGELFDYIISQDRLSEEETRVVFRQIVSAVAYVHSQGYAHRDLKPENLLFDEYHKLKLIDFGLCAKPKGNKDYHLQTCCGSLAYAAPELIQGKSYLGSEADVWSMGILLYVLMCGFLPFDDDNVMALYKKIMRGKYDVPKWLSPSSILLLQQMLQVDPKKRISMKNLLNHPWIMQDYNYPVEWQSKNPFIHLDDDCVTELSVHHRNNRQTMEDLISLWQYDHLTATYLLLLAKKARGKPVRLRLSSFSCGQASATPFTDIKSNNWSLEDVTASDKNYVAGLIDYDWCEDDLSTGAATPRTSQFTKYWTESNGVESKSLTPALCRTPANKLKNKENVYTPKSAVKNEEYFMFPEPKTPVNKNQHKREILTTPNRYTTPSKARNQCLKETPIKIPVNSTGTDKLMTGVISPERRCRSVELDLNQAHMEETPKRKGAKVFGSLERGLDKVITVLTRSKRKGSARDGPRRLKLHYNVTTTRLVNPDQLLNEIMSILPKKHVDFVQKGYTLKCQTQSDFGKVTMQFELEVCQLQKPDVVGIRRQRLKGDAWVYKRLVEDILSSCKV
Summary of the method: as §1

[31] = target: T31, RSK2 (Homo sapiens, UniProt P51812)
T31 construct: purchased Reaction Biology Corporation
T31 sequence (P51812 whole entry): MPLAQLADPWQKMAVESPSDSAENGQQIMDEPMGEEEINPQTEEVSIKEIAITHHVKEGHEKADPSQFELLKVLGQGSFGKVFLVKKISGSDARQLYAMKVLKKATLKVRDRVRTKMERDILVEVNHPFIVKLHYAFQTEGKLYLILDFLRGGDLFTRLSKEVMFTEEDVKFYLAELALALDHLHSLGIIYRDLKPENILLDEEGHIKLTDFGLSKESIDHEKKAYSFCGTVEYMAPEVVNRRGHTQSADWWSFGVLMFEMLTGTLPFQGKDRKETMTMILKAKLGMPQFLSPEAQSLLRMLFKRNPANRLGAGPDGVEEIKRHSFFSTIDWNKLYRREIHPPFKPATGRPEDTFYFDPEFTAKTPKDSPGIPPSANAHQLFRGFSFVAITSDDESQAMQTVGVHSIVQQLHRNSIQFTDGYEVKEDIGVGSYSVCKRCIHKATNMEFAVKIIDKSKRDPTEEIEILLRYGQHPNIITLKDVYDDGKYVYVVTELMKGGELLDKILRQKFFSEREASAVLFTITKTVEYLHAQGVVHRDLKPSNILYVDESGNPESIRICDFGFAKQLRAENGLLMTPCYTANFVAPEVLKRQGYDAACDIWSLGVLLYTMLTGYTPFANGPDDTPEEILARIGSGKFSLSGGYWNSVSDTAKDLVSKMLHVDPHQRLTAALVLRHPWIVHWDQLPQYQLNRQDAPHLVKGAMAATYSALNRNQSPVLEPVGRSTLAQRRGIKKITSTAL
Summary of the method: as §1

[32] = target: T32, MLCK/MYLK (Homo sapiens, UniProt Q15746)
T32 construct: purchased Reaction Biology Corporation
Summary of the method: as §1

[33] = target: T33, JNK1 (Homo sapiens, UniProt P45983)
T33 construct: purchased Reaction Biology Corporation
Summary of the method: as §1

T1 sequence (Q06418 41-890): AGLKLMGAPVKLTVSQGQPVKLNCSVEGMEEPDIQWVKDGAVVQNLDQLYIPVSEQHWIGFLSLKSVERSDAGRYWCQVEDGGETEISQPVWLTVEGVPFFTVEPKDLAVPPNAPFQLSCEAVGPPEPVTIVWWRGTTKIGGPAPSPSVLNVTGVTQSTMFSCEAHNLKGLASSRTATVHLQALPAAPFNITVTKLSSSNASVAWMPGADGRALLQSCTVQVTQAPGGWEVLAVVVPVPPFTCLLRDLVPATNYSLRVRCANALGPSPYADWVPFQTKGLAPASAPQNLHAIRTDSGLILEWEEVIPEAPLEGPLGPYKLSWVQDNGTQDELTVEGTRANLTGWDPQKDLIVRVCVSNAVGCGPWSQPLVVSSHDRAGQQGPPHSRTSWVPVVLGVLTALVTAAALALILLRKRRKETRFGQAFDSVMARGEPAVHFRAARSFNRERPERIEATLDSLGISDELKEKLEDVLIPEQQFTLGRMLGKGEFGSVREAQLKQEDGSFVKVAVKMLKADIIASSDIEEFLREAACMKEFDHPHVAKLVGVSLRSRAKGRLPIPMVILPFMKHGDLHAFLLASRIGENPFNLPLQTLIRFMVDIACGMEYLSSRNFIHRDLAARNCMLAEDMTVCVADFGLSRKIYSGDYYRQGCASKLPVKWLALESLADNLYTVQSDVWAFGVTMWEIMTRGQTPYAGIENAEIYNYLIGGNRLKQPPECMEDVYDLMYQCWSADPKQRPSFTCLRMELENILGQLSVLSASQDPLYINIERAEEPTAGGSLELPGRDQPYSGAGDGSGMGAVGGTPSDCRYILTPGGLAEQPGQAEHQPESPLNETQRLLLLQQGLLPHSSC

## CC(=O)Nc1nc2ccc(-c3cnc(C)c(NC(=O)OC4CCCCC4)c3)cc2s1 [PK68, cyclohexyl (5-(2-acetamidobenzo[d]thiazol-6-yl)-2-methylpyridin-3-yl)carbamate]
[1]; 1 μM
  Activity%: 97.95%
[1]
  activity at 1 µM: 99.6%
[2]; 1 μM
  Activity%: 94.58%
[2]
  activity at 1 µM: 95.5%
[3]; 1 μM
  Activity%: 96.80%
[3]
  activity at 1 µM: 99.3%
[4]; 1 μM
  Activity%: 100.48%
[4]
  activity at 1 µM: 101%
[5]; 1 μM
  Activity%: 55.63%
[5]
  activity at 1 µM: 57%
[6]; 1 μM
  Activity%: 96.14%
[6]
  activity at 1 µM: 97.5%
[7]; 1 μM
  Activity%: 92.90%
[7]
  activity at 1 µM: 95.3%
[8]; 1 μM
  Activity%: 96.95%
[8]
  activity at 1 µM: 98%
[9]; 1 μM
  Activity%: 99.01%
[9]
  activity at 1 µM: 99.6%
[10]; 1 μM
  Activity%: 97.17%
[10]
  activity at 1 µM: 98.1%
[11]; 1 μM
  Activity%: 111.38%
[11]
  activity at 1 µM: 112%
[12]; 1 μM
  Activity%: 95.71%
[12]
  activity at 1 µM: 96.5%
[13]; 1 μM
  Activity%: 99.36%
[13]
  activity at 1 µM: 99.9%
[14]; 1 μM
  Activity%: 107.36%
[14]
  activity at 1 µM: 109%
[15]; 1 μM
  Activity%: 100.58%
[15]
  activity at 1 µM: 101%
[16]; 1 μM
  Activity%: 94.03%
[16]
  activity at 1 µM: 96.1%
[17]; 1 μM
  Activity%: 98.93%
[17]
  activity at 1 µM: 99.5%
[18]; 1 μM
  Activity%: 99.02%
[18]
  activity at 1 µM: 99.7%
[19]; 1 μM
  Activity%: 88.77%
[19]
  activity at 1 µM: 90.5%
[20]; 1 μM
  Activity%: 98.85%
[20]
  activity at 1 µM: 99.5%
[21]; 1 μM
  Activity%: 81.88%
[21]
  activity at 1 µM: 82.6%
[22]; 1 μM
  Activity%: 97.32%
[22]
  activity at 1 µM: 97.6%
[23]; 1 μM
  Activity%: 96.49%
[23]
  activity at 1 µM: 97.6%
[24]; 1 μM
  Activity%: 100.00%
[24]
  activity at 1 µM: 100%
[25]; 1 μM
  Activity%: 90.72%
[25]
  activity at 1 µM: 91.3%
[26]; 1 μM
  Activity%: 102.24%
[26]
  activity at 1 µM: 102%
[27]; 1 μM
  Activity%: 90.49%
[27]
  activity at 1 µM: 95.2%
[28]; 1 μM
  Activity%: 103.42%
[28]
  activity at 1 µM: 105%
[29]; 1 μM
  Activity%: 85.76%
[29]
  activity at 1 µM: 89.8%
[30]; 1 μM
  Activity%: 100.40%
[30]
  activity at 1 µM: 102%
[31]; 1 μM
  Activity%: 90.87%
[31]
  activity at 1 µM: 92.3%
[32]; 1 μM
  Activity%: 97.43%
[32]
  activity at 1 µM: 99.7%
[33]; 1 μM
  Activity%: 97.06%
[33]
  activity at 1 µM: 98.7%
